The test system of this assay is phenyl-p-benzoquinone induced writhing in mice. As to the kind of experiment: mouse antiphenylquinone writhing test (oral analgesic activity). The conditions noted are these: for ED50: Mus musculus, po, 5 min; for peak time for analgesia: preliminary experiment, drug alone. (In general: An intraperitoneal irritant provokes the stretching counted in writhing tests.)

Counter-ions that a name gives are not always drawn.

Method: Male CF1 mice obtained from Charles River Breeding Laboratories, fasted for 16-22 hours, and weighing 18-22 g at the time of testing are used throughout. All mice are dosed orally with acetaminophen and/or nalbuphine (calculated as the hydrochloride salt) dissolved completely in distilled water containing as vehicle 2% by volume of Tween 80®, a pharmacological dispersant manufactured by Fisher Scientific Company and containing 100% polysorbate 80. A dosing volume of 20 ml/kg is used. All doses are coded and the test is performed under a code not known to the observer.
Mice, intubated with various doses of nalbuphine HCl, acetaminophen, combined doses of nalbuphine.HCl and acetaminophen, or vehicle, are injected intraperitoneally with a challenge dose of phenyl-p-benzoquinone.The phenyl-p-benzoquinone is prepared as a 0.1 mg/ml solution in 5% by volume of ethanol in water; the writhing dose is 1.25 mg/kg injected at the rate of 0.25 ml/20 g. For scoring purposes a "writhe" is indicated by whole body stretching or contraction of the abdomen: mice are observed 10 minutes for the presence or absence of writhing beginning 5 minutes after receiving the phenyl-p-benzoquinone dose. Each mouse is used only once, then discarded.
Initially the time of peak activity is determined separately for each drug in the antiphenylquinone writhing test. Then several doses of each drug alone and in precise nalbuphine.HCl/acetaminophen ratios are given orally at or near the time of peak analgesic effects.
All ED50 values are determined numerically by the moving average method of Thompson (W. F. Thompson: Bacteriological Rev. 11, 115-145, 1947) and 95% confidence limits are calculated according to the method of Litchfield and Wilcoxon (J. T. Litchfield, Jr. and F. Wilcoxon: J. Pharm. Exp. Ther. 96, 99-113, 1949).

What is called ED50 is the midpoint of the dose-response relation. The low end stands for greater potency, the high end for weaker potency. As for `Oc1ccc2c3c1O[C@H]1[C@@H](O)CC[C@@]4(O)[C@@H](C2)N(CC2CCC2)CC[C@]314` [Nalbuphine . HCl, (-)-17-(cyclobutylmethyl)-4,5α-epoxymorphinan-3,6α, 14-triol], the ED50 came out at 7.6 mg/kg. Where the note is “Table 1, oral, nalbuphine.HCl component dose (alone or in combination), 95% confidence limits printed on adjacent line”, the “ED50 AT 5 MIN., Nalbuphine . HCl” value was determined as 8.58 mg/kg. In addition, the “% MICE BLOCKED” value (oral, nalbuphine.HCl 1.9 mg/kg, acetaminophen 0) was found to be 10%. In addition, the “% MICE BLOCKED” value (oral, nalbuphine.HCl 3.8 mg/kg, acetaminophen 0) amounted to 23%. Moreover, the “% MICE BLOCKED” value (oral, nalbuphine.HCl 7.6 mg/kg, acetaminophen 0) is recorded as 50%. In addition, the “% MICE BLOCKED” value (oral, nalbuphine.HCl 15.2 mg/kg, acetaminophen 0) stood at 63%. For the same compound, under “oral, nalbuphine.HCl 30.4 mg/kg, acetaminophen 0”, the “% MICE BLOCKED” value came to 90%. Also, the “peak time for analgesia” value (oral) was determined as 5 min.
As to `CC(=O)Nc1ccc(O)cc1` [Acetaminophen, N-(4-hydroxyphenyl)acetamide], the ED50 stood at 119 mg/kg. Further, the “ED50 AT 5 MIN., Acetaminophen” value (Table 1, oral, acetaminophen component dose (alone or in combination), 95% confidence limits printed on adjacent line) was determined as 151 mg/kg. Besides, the “% MICE BLOCKED” value (oral, nalbuphine.HCl 0, acetaminophen 29.8 mg/kg) was 20%. Moreover, the “% MICE BLOCKED” value (oral, nalbuphine.HCl 0, acetaminophen 59.5 mg/kg) is reported as 23%. In addition, the “% MICE BLOCKED” value (oral, nalbuphine.HCl 0, acetaminophen 238 mg/kg) is given as 55%. Besides, the “peak time for analgesia” value (oral) was found to be 5 min.

The values are drawn from US4237140A, “Analgesic mixture of nalbuphine and acetaminophen” (E. I. Du Pont de Nemours and Company, priority 1979, dated 1980).
